Test results published in patent US9284325B2, “Spectinamides as anti-tuberculosis agents” (UNIVERSITY OF TENNESSEE RESEARCH FOUNDATION, priority 2009, dated 2016).
Structures can show the parent of a compound that is named as a salt.

How the values were obtained:
M. tuberculosis H37Rv = assay: MIC determination by microbroth dilution, anti-tuberculosis activity; assay type: cell-based, Mycobacterium tuberculosis; conditions: Mycobacterium tuberculosis, H37RV, 168 h; read-out: MIC
[1] = test system: S. aureus 8325 or strain ATCC 29213; assay: MIC determination by microbroth dilution; assay type: cell-based, Staphylococcus aureus; conditions: Staphylococcus aureus, ATCC29213; S. aureus 8325 or strain ATCC 29213 (for 1471-1544)
[2] = test system: Strep. pyogenes ATCC 700294; assay: MIC determination by microbroth dilution; assay type: cell-based, Streptococcus pyogenes; conditions: Streptococcus pyogenes, ATCC700294, read-out: MIC S. pyogenes
[3] = test system: Strep. pneumoniae DAW27 or strain R6; assay: MIC determination by microbroth dilution; assay type: cell-based, Streptococcus pneumoniae; conditions: Streptococcus pneumoniae; Strep. pneumoniae DAW27 or strain R6 (for 1443-1544); read-out: MIC S. pneumoniae
E. faecalis ATCC 33186 = assay: MIC determination by microbroth dilution; assay type: cell-based, Enterococcus faecalis; conditions: Enterococcus faecalis, ATCC33186
B. anthracis Sterne 34F2 = assay: microbe, parasite or virus in culture; assay type: cell-based, Bacillus anthracis; conditions: Bacillus anthracis, STERNE34F2, read-out: MIC B. anthracis 34F2
[4] = test system: Burkholderia cepacia ATCC 25416; assay: MIC determination by microbroth dilution; assay type: cell-based; conditions: ATCC25416, read-out: MIC B. cepcia
[5] = test system: Proteus mirabilis ATCC 25933; assay: MIC determination by microbroth dilution; assay type: cell-based; conditions: ATCC25933
[6] = test system: Proteus vulgaris ATCC 33420; assay: MIC determination by microbroth dilution; assay type: cell-based; conditions: ATCC33420
[7] = test system: Klebsiella pneumoniae ATCC 33495; assay: MIC determination by microbroth dilution; assay type: cell-based; conditions: ATCC33495
[8] = test system: Acinetobacter baumannii ATCC 19606; assay: MIC determination by microbroth dilution; assay type: cell-based; conditions: ATCC19606
P. aeruginosa PAO1 = assay: MIC determination by microbroth dilution; assay type: cell-based, Pseudomonas aeruginosa; conditions: Pseudomonas aeruginosa
[9] = test system: Strenotrophomonas maltophilia ATCC 13637; assay: MIC determination by microbroth dilution; assay type: cell-based
E. coli K12 = assay: MIC determination by microbroth dilution; assay type: cell-based, Escherichia coli; conditions: Escherichia coli, K12
E. coli K12 ΔtolC = assay: microbe, parasite or virus in culture; assay type: cell-based; conditions: Escherichia coli, read-out: MIC E. coli K12 ΔtolC
E. coli ribosomes = assay type: biochemical; conditions: for IC50, 50% inhibition of luciferase biosynthesis in S30 assay: E. coli S30 transcription/translation assay; for relative inhibitory activity on luciferase production: tested at 0.66 and 6.6 μM, FIG. 5

CN[C@@H]1[C@H](O)[C@H](NC)C2O[C@]3(O)C(OC2[C@H]1O)O[C@H](C)C[C@H]3NC(=O)Cc1cscn1 (stereo partly drawn) [Compound 1443, 3′-Dihydro-3′-deoxy-4(R)-(thiazol-4-yl)acetylamino spectinomycin trihydrobromide]
> 200 µg/mL: MIC [4] | MIC [5] | MIC [6] | MIC [8] | MIC (P. aeruginosa PAO1) | MIC [9]
50 µg/mL: MIC [1] | MIC (E. faecalis ATCC 33186)
200 µg/mL: MIC (E. coli K12 ΔtolC)
12.5 µg/mL: MIC [3]
100 µg/mL: MIC [7] | MIC (E. coli K12)
0.29 µg/mL: IC50, 50% inhibition of luciferase biosynthesis in S30 assay (E. coli ribosomes)
1.6 µg/mL: MIC (M. tuberculosis H37Rv) | MIC (B. anthracis Sterne 34F2)
6.25 µg/mL: MIC [2]

CN[C@@H]1[C@H](O)[C@H](NC)C2O[C@]3(O)C(OC2[C@H]1O)O[C@H](C)C[C@H]3NC(=O)Cc1ncccn1 (stereo partly drawn) [Compound 1439, 3′-Dihydro-3′-deoxy-4(R)-(pyrimidin-2yl)acetylamino spectinomycin Dihydrochloride]
12.5 µg/mL: MIC [3] | MIC (E. coli K12 ΔtolC)
> 200 µg/mL: MIC (M. tuberculosis H37Rv) | MIC [2] | MIC [4] | MIC [5] | MIC [6] | MIC [7] | MIC [8] | MIC [9]
25 µg/mL: MIC [1]
50 µg/mL: MIC (E. faecalis ATCC 33186) | MIC (B. anthracis Sterne 34F2) | MIC (P. aeruginosa PAO1)
2.63 µg/mL: IC50, 50% inhibition of luciferase biosynthesis in S30 assay (E. coli ribosomes)
100 µg/mL: MIC (E. coli K12)
less active than 1329: relative inhibitory activity on luciferase production (E. coli ribosomes)

CN[C@@H]1[C@H](O)[C@H](NC)C2O[C@]3(O)C(OC2[C@H]1O)O[C@H](C)C[C@H]3NC(=O)Cc1ccc(OC)cc1 (stereo partly drawn) [Compound 1446, 3′-Dihydro-3′-deoxy-4(R)-(4-methoxy-phenyl)acetylamino spectinomycin Dihydrochloride]
> 200 µg/mL: MIC [1] | MIC [4] | MIC [5] | MIC [6] | MIC [8] | MIC (P. aeruginosa PAO1) | MIC [9] | MIC (E. coli K12 ΔtolC)
6.25 µg/mL: MIC [2] | MIC [3]
0.68 µg/mL: IC50, 50% inhibition of luciferase biosynthesis in S30 assay (E. coli ribosomes)
200 µg/mL: MIC (E. faecalis ATCC 33186) | MIC [7] | MIC (E. coli K12)
12.5 µg/mL: MIC (M. tuberculosis H37Rv)
100 µg/mL: MIC (B. anthracis Sterne 34F2)

CN[C@@H]1[C@H](O)[C@H](NC)C2O[C@]3(O)C(OC2[C@H]1O)O[C@H](C)C[C@H]3NCc1ccc(C)cc1 (stereo partly drawn) [Compound 1425, 3′-Dihydro-3′-deoxy-4(R)-(4-methyl)benzylamino spectinomycin Trihydrochloride]
> 200 µg/mL: MIC [4] | MIC [5] | MIC [6] | MIC [7] | MIC [8] | MIC [9]
200 µg/mL: MIC (P. aeruginosa PAO1) | MIC (E. coli K12)
100 µg/mL: MIC [3] | MIC (E. faecalis ATCC 33186) | MIC (B. anthracis Sterne 34F2) | MIC (E. coli K12 ΔtolC)
inhibited well: relative inhibitory activity on luciferase production (E. coli ribosomes)
50 µg/mL: MIC [1]
1000 µg/mL: MIC (M. tuberculosis H37Rv)
12.5 µg/mL: MIC [2]

CN[C@@H]1[C@H](O)[C@H](NC)C2O[C@]3(O)C(OC2[C@H]1O)O[C@H](C)C[C@H]3NCc1ccco1 (stereo partly drawn) [Compound 1422, 3′-Dihydro-3′-deoxy-4(R)-furan-2yl-methylamino spectinomycin Trihydrochloride]
12.5 µg/mL: MIC (E. faecalis ATCC 33186) | MIC (B. anthracis Sterne 34F2) | MIC (E. coli K12 ΔtolC)
inhibited well: relative inhibitory activity on luciferase production (E. coli ribosomes)
200 µg/mL: MIC (M. tuberculosis H37Rv) | MIC [2]
> 200 µg/mL: MIC [4] | MIC [5] | MIC [6] | MIC [7] | MIC [8] | MIC [9]
50 µg/mL: MIC [3]
25 µg/mL: MIC [1] | MIC (P. aeruginosa PAO1) | MIC (E. coli K12)

CN[C@@H]1[C@H](O)[C@H](NC)C2O[C@]3(O)C(OC2[C@H]1O)O[C@H](C)C[C@H]3NC(=O)Cc1ccccc1OC (stereo partly drawn) [Compound 1448, 3′-Dihydro-3′-deoxy-4(R)-(2-methoxy-phenyl)acetylamino spectinomycin Dihydrochloride]
> 200 µg/mL: MIC [1] | MIC (E. faecalis ATCC 33186) | MIC (B. anthracis Sterne 34F2) | MIC [5] | MIC [6] | MIC [7] | MIC [8] | MIC (P. aeruginosa PAO1) | MIC [9] | MIC (E. coli K12) | MIC (E. coli K12 ΔtolC)
2.41 µg/mL: IC50, 50% inhibition of luciferase biosynthesis in S30 assay (E. coli ribosomes)
200 µg/mL: MIC (M. tuberculosis H37Rv) | MIC [4]
25 µg/mL: MIC [2] | MIC [3]

CN[C@@H]1[C@H](O)[C@H](NC)C2O[C@]3(O)C(OC2[C@H]1O)O[C@H](C)C[C@H]3NC(=O)Cc1cccc(F)c1F (stereo partly drawn) [Compound 1447, 3′-Dihydro-3′-deoxy-4(R)-(2,3-difluoro-phenyl)acetylamino spectinomycin Dihydrochloride]
6.25 µg/mL: MIC [2] | MIC [3]
100 µg/mL: MIC (E. faecalis ATCC 33186) | MIC (B. anthracis Sterne 34F2)
0.22 µg/mL: IC50, 50% inhibition of luciferase biosynthesis in S30 assay (E. coli ribosomes)
50 µg/mL: MIC (M. tuberculosis H37Rv)
200 µg/mL: MIC [7] | MIC (E. coli K12)
> 200 µg/mL: MIC [1] | MIC [4] | MIC [5] | MIC [6] | MIC [8] | MIC (P. aeruginosa PAO1) | MIC [9] | MIC (E. coli K12 ΔtolC)

CN[C@@H]1[C@H](O)[C@H](NC)C2O[C@]3(O)C(OC2[C@H]1O)O[C@H](C)C[C@H]3NC(=O)Cc1ccc(F)cc1 (stereo partly drawn) [Compound 1367, 3′-Dihydro-3′-deoxy-4(R)-(4-fluoro-phenyl)-acetylamino spectinomycin Dihydrochloride]
50 µg/mL: MIC [1] | MIC [2] | MIC [3] | MIC (B. anthracis Sterne 34F2) | MIC (E. coli K12 ΔtolC)
1.05 µg/mL: IC50, 50% inhibition of luciferase biosynthesis in S30 assay (E. coli ribosomes)
3.1 µg/mL: MIC (M. tuberculosis H37Rv)
> 200 µg/mL: MIC [4] | MIC [5] | MIC [6] | MIC [7] | MIC [8] | MIC [9]
100 µg/mL: MIC (P. aeruginosa PAO1)
200 µg/mL: MIC (E. faecalis ATCC 33186) | MIC (E. coli K12)

CN[C@@H]1[C@H](O)[C@H](NC)C2O[C@]3(O)C(OC2[C@H]1O)O[C@H](C)C[C@H]3NC(=O)Cc1csc(Nc2ccc(OC(F)(F)F)cc2)n1 (stereo partly drawn) [Compound 1540, 3′-Dihydro-3′-deoxy-4(R)-(2-((4-(trifluoromethoxy)phenyl)amino)-thiazol-4-yl)acetylamino spectinomycin tribromide]
200 µg/mL: MIC [9]
12.5 µg/mL: MIC (E. coli K12 ΔtolC)
> 200 µg/mL: MIC (B. anthracis Sterne 34F2) | MIC [4] | MIC [5] | MIC [6] | MIC [7] | MIC [8] | MIC (E. coli K12)
100 µg/mL: MIC [1]
6.25 µg/mL: MIC (M. tuberculosis H37Rv) | MIC [2] | MIC [3]
25 µg/mL: MIC (E. faecalis ATCC 33186) | MIC (P. aeruginosa PAO1)

CN[C@@H]1[C@H](O)[C@H](NC)C2O[C@]3(O)C(OC2[C@H]1O)O[C@H](C)C[C@H]3NC(=O)CCNC(=O)c1ccccc1 (stereo partly drawn) [Compound 1503, 3′-Dihydro-3′-deoxy-4(R)-3-benzamido propanoylamino spectino-mycin Dihydrochloride]
> 200 µg/mL: MIC (M. tuberculosis H37Rv) | MIC [1] | MIC [2] | MIC [3] | MIC (E. faecalis ATCC 33186) | MIC (B. anthracis Sterne 34F2) | MIC [4] | MIC [5] | MIC [6] | MIC [7] | MIC [8] | MIC (P. aeruginosa PAO1) | MIC [9] | MIC (E. coli K12) | MIC (E. coli K12 ΔtolC)

CN[C@@H]1[C@H](O)[C@H](NC)C2O[C@]3(O)C(OC2[C@H]1O)O[C@H](C)C[C@H]3NC(=O)[C@@H](N)Cc1ccccc1 (stereo partly drawn) [Compound 1515, 3′-Dihydro-3′-deoxy-4(R)-[2(S)-amino,3-phenyl]propanoylamino spectinomycin Trihydrochloride]
6.25 µg/mL: MIC [3]
> 200 µg/mL: MIC [1] | MIC (E. faecalis ATCC 33186) | MIC (B. anthracis Sterne 34F2) | MIC [4] | MIC [5] | MIC [7] | MIC [8] | MIC (P. aeruginosa PAO1) | MIC [9] | MIC (E. coli K12)
100 µg/mL: MIC [6]
12.5 µg/mL: MIC [2] | MIC (E. coli K12 ΔtolC)
200 µg/mL: MIC (M. tuberculosis H37Rv)

CN[C@@H]1[C@H](O)[C@H](NC)C2O[C@]3(O)C(OC2[C@H]1O)O[C@H](C)C[C@H]3NC(=O)[C@@H](C)N (stereo partly drawn) [Compound 1501, 3′-Dihydro-3′-deoxy-4(R)[2(R)-amino]propanoylamino spectinomycin Trihydrochloride]
> 200 µg/mL: MIC (M. tuberculosis H37Rv) | MIC [1] | MIC [2] | MIC [3] | MIC (E. faecalis ATCC 33186) | MIC (B. anthracis Sterne 34F2) | MIC [4] | MIC [5] | MIC [6] | MIC [7] | MIC [8] | MIC (P. aeruginosa PAO1) | MIC [9] | MIC (E. coli K12) | MIC (E. coli K12 ΔtolC)
